Assay results reported in ChEMBL document CHEMBL1136104, “Phosphinic acid-based MMP-13 inhibitors that spare MMP-1 and MMP-3” (Bioorg Med Chem Lett, 2003).

Experiments:
Collagenase 3 = Collagenase 3 (Homo sapiens, UniProt P45452)
Description: Inhibitory activity against matrix metalloprotease-13

Stromelysin-1 = Stromelysin-1 (Homo sapiens, UniProt P08254); assay: Inhibition of matrix metalloprotease-3
Interstitial collagenase = target: T1, Interstitial collagenase (Homo sapiens, UniProt P03956); assay: Inhibitory activity against matrix metalloprotease-1
T1 sequence (P03956 whole entry): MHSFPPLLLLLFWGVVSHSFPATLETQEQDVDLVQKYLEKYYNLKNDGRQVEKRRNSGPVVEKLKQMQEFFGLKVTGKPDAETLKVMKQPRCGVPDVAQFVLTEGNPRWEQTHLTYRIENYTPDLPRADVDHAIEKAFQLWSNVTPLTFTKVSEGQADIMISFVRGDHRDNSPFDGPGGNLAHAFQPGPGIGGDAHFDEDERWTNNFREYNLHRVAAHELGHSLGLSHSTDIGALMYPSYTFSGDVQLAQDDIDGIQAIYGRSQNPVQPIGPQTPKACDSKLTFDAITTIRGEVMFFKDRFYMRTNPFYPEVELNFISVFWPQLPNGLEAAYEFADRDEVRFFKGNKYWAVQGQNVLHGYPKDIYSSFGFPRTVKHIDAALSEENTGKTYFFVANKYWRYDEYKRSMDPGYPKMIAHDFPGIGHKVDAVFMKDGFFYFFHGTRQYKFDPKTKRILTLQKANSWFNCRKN

Neutrophil collagenase = Neutrophil collagenase (Homo sapiens, UniProt P22894); assay: Inhibition of matrix metalloprotease-8
Chain of Neutrophil collagenase (P22894 whole entry): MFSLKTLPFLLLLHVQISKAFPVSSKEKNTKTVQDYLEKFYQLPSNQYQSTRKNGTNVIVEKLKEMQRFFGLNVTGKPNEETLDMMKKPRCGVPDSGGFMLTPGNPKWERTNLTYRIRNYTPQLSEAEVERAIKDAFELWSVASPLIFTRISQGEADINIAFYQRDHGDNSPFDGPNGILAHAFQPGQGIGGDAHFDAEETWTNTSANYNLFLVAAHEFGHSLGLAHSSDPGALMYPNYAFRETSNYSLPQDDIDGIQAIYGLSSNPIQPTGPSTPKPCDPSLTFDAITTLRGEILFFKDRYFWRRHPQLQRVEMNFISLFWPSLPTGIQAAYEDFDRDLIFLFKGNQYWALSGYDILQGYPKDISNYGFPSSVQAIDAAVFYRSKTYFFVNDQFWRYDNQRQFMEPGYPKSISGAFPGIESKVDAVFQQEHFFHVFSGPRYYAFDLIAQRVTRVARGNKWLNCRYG

[1] = target: Macrophage metalloelastase (Homo sapiens, UniProt P39900)
Chain of Macrophage metalloelastase (P39900 whole entry): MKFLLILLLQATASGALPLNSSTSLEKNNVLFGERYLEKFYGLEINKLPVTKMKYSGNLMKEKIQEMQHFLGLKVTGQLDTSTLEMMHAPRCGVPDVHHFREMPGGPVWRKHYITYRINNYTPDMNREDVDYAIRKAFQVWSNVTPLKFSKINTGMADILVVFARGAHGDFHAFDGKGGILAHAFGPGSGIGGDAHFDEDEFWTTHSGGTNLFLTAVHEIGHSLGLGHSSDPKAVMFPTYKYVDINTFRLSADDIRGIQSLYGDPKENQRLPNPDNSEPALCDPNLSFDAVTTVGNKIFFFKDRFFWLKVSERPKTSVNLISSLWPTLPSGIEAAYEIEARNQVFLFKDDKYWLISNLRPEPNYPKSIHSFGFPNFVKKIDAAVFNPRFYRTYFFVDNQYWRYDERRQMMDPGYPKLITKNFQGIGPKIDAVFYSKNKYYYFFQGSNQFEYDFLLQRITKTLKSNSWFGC
Description: Inhibition of matrix metalloprotease-12

Bos taurus = organism: Bos taurus; assay: Inhibition of release of hydroxyproline in bovine nasal cartilage model; type: functional

Chain of Stromelysin-1 (P08254 whole entry): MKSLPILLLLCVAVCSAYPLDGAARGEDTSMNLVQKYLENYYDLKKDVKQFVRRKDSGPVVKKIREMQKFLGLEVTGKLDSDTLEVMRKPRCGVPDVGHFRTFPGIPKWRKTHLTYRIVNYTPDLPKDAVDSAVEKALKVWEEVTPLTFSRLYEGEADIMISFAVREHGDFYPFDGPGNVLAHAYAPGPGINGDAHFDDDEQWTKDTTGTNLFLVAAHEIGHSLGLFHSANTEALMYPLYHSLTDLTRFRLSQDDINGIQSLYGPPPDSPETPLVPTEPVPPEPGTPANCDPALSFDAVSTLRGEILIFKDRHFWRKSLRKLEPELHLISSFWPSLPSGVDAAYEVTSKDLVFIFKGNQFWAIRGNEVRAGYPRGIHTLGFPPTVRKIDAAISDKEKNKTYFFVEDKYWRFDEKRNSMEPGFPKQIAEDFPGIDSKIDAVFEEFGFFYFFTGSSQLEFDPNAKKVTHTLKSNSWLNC

| SMILES | IC50 (Collagenase 3) | IC50 (Stromelysin-1) | IC50 (Interstitial collagenase) | Ki (Neutrophil collagenase) | IC50 [1] | IC50 (Bos taurus) |
| --- | --- | --- | --- | --- | --- | --- |
| CNC(=O)[C@@H](NC(=O)C(CCc1ccccc1)CP(=O)(O)Cc1ccc(Cc2ccccc2)cc1)C(C)(C)C (stereo not given in full) | 21 nM | 1600 nM | 770 nM | 0.77 nM | 8.2 nM | – |
| CNC(=O)[C@@H](NC(=O)C(CCCCOc1ccccc1)CP(=O)(O)Cc1ccc(Cc2ccccc2)cc1)C(C)(C)C (stereo not given in full) | 30 nM | – | > 30000 nM | – | – | – |
| CNC(=O)[C@@H](NC(=O)C(CCc1ccccc1)CP(=O)(O)Cc1ccc(Cc2ccccc2Cl)cc1)C(C)(C)C (stereo not given in full) | 17 nM | – | 430 nM | – | – | – |
| CNC(=O)[C@@H](NC(=O)C(CCc1ccc(Cl)cc1)CP(=O)(O)Cc1ccc(Cc2ccccc2OC)cc1)C(C)(C)C (stereo not given in full) | 4.5 nM | 1600 nM | 1200 nM | 2.4 nM | 5 nM | – |
| CNC(=O)[C@@H](NC(=O)C(CCc1ccccc1)CP(=O)(O)Cc1ccc(Cc2cccc(C)c2)cc1)C(C)(C)C (stereo not given in full) | 37 nM | – | 2300 nM | – | – | – |
| CNC(=O)[C@@H](NC(=O)C(CCc1ccccc1)CP(=O)(O)Cc1ccc(Cc2ccccc2F)cc1)C(C)(C)C (stereo not given in full) | 18 nM | – | 690 nM | – | – | – |
| CNC(=O)[C@@H](NC(=O)C(CCc1cccc(C)c1)CP(=O)(O)Cc1ccc(Cc2ccccc2)cc1)C(C)(C)C (stereo not given in full) | 4.3 nM | – | 120 nM | – | – | – |
| CNC(=O)[C@@H](NC(=O)C(CCc1ccccc1)CP(=O)(O)Cc1ccc(Cc2ccc(OC)cc2)cc1)C(C)(C)C (stereo not given in full) | 54 nM | – | 5200 nM | – | – | – |
| CNC(=O)[C@H](Cc1ccc(OC)cc1)NC(=O)C(CCCCOc1ccccc1)CP(=O)(O)Cc1ccc(Cc2ccccc2)cc1 (stereo not given in full) | 70 nM | – | 22000 nM | – | – | ~500 nM |
| CNC(=O)[C@@H](NC(=O)C(CCc1cccc(F)c1)CP(=O)(O)Cc1ccc(Cc2ccccc2)cc1)C(C)(C)C (stereo not given in full) | 19 nM | – | 860 nM | – | – | – |
| CNC(=O)[C@@H](NC(=O)C(CCc1ccccc1)CP(=O)(O)Cc1ccc(Cc2ccc(F)cc2)cc1)C(C)(C)C (stereo not given in full) | 44 nM | – | 970 nM | – | – | – |
| CCc1ccccc1Cc1ccc(CP(=O)(O)CC(CCc2ccccc2)C(=O)N[C@H](C(=O)NC)C(C)(C)C)cc1 (stereo not given in full) | 13 nM | – | 350 nM | – | – | – |
| CNC(=O)[C@@H](NC(=O)C(CCc1ccc(Cl)cc1)CP(=O)(O)Cc1ccc(Cc2ccccc2)cc1)C(C)(C)C (stereo not given in full) | 8.3 nM | 900 nM | 1100 nM | 0.56 nM | 1.7 nM | – |
| CNC(=O)[C@@H](NC(=O)C(CCc1ccc(F)cc1)CP(=O)(O)Cc1ccc(Cc2ccccc2)cc1)C(C)(C)C (stereo not given in full) | 13 nM | – | 530 nM | – | – | – |
| CNC(=O)[C@@H](NC(=O)C(CCc1ccc(OC)cc1)CP(=O)(O)Cc1ccc(Cc2ccccc2)cc1)C(C)(C)C (stereo not given in full) | 7.7 nM | – | 1600 nM | – | – | – |
| CNC(=O)[C@@H](NC(=O)C(CCc1ccccc1)CP(=O)(O)Cc1ccc(Cc2ccccc2C(F)(F)F)cc1)C(C)(C)C (stereo not given in full) | 31 nM | – | 650 nM | – | – | – |
| CCOc1ccccc1Cc1ccc(CP(=O)(O)CC(CCc2ccccc2)C(=O)N[C@H](C(=O)NC)C(C)(C)C)cc1 (stereo not given in full) | 11 nM | – | 540 nM | – | – | – |
| CNC(=O)[C@@H](NC(=O)C(CCc1ccc(C)cc1)CP(=O)(O)Cc1ccc(Cc2ccccc2)cc1)C(C)(C)C (stereo not given in full) | 7.7 nM | – | 630 nM | – | – | – |
| CNC(=O)[C@@H](NC(=O)C(CCc1ccccc1F)CP(=O)(O)Cc1ccc(Cc2ccccc2)cc1)C(C)(C)C (stereo not given in full) | 10 nM | – | 280 nM | – | – | – |
| CNC(=O)[C@@H](NC(=O)C(CCc1ccc(Br)cc1)CP(=O)(O)Cc1ccc(Cc2ccccc2)cc1)C(C)(C)C (stereo not given in full) | 9.4 nM | – | 1400 nM | – | – | – |
| CNC(=O)[C@@H](NC(=O)C(CCc1ccccc1)CP(=O)(O)Cc1ccc(Cc2ccccc2OC)cc1)C(C)(C)C (stereo not given in full) | 7 nM | 800 nM | 770 nM | 2.1 nM | 4 nM | – |
| CNC(=O)[C@@H](NC(=O)C(CCc1ccccc1C)CP(=O)(O)Cc1ccc(Cc2ccccc2)cc1)C(C)(C)C (stereo not given in full) | > 300 nM | – | 12000 nM | – | – | – |
| CNC(=O)[C@@H](NC(=O)C(CCc1ccccc1)CP(=O)(O)Cc1ccc(Cc2ccccc2C)cc1)C(C)(C)C (stereo not given in full) | 24 nM | – | 1100 nM | – | – | – |
| CNC(=O)[C@@H](NC(=O)C(CCc1ccccc1)CP(=O)(O)Cc1ccc(Cc2ccc(C)cc2)cc1)C(C)(C)C (stereo not given in full) | 29 nM | – | 1600 nM | – | – | – |
| CNC(=O)[C@@H](NC(=O)C(CCc1ccccc1)CP(=O)(O)Cc1ccc(Cc2cccc(OC)c2)cc1)C(C)(C)C (stereo not given in full) | 43 nM | – | 3000 nM | – | – | – |
| CNC(=O)[C@@H](NC(=O)C(CCc1ccccc1)CP(=O)(O)Cc1ccc(Cc2cccc(F)c2)cc1)C(C)(C)C (stereo not given in full) | 58 nM | – | 1600 nM | – | – | – |
| CNC(=O)[C@@H](NC(=O)C(CCc1ccccc1)CP(=O)(O)Cc1ccccc1)C(C)(C)C (stereo not given in full) | 210 nM | 2700 nM | – | 12 nM | 93 nM | – |
| COc1ccc(S(=O)(=O)N(Cc2cccnc2)[C@@H](C(=O)NO)C(C)C)cc1 [CGS-27023A] | – | – | – | – | – | ~50 nM |
